Measurements as given in paper PMC7380166, “How to Study the Metabolism of New Psychoactive Substances for the Purpose of Toxicological Screenings—A Follow-Up Study Comparing Pooled Human Liver S9, HepaRG Cells, and Zebrafish Larvae” (Frontiers in Chemistry, 2020).

Legend:
Design in all cases: key: +, detected; –: −, not detected
CYP2B6 = molecular target: T1, CYP2B6 (Homo sapiens, UniProt P20813); experiment: Monooxygenases activity screening, CYP2B6; assay type: in vitro ADME; conditions: 25 μM 4F-MDMB-BINACA, 50 pmol/ml enzyme, 30 min, 37°C, duplicate
T1 construct: purchased Corning; host or cells: baculovirus-transfected insect cell microsomes (Supersomes)
T1 sequence (P20813 1-491): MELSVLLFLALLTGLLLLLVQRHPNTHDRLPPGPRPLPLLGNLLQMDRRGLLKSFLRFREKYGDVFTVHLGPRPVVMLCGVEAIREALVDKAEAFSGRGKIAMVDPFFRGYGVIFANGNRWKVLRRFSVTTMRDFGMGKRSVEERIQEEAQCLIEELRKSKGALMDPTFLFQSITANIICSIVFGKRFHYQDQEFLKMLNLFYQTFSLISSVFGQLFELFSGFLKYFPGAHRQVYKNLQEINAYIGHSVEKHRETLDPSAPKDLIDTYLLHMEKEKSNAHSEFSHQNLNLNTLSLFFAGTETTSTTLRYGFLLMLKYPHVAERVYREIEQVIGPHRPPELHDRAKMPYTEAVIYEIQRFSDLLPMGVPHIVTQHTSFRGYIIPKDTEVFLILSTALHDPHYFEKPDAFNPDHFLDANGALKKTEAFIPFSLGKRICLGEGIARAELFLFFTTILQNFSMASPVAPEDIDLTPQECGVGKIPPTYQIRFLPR
Experimental: (§1) According to an established protocol (Wagmann et al., [2016]), the final volume per reaction tube was 50 μl with a final 4F-MDMB-BINACA concentration of 25 μM and enzyme concentrations of 50 pmol/ml for CYP1A2, CYP2A6, CYP2B6, CYP2C8, CYP2C9, CYP2C19, CYP2D6, CYP2E1, CYP3A4, and CYP3A5, respectively, or 0.25 mg protein/ml for FMO3. Furthermore, the reaction mixture contained 90 mM phosphate buffer (pH 7.4), superoxide dismutase (200 U/ml), isocitrate (5 mM), MgCl2 (5 mM), isocitrate dehydrogenase (0.5 U/ml), and NADP^+ (1.2 mM). The phosphate buffer was replaced with Tris buffer (90 mM) for incubations with CYP2A6 and CYP2C9 according to the manufacturer's recommendation. All incubations were performed at 37°C for 30 min and terminated by adding 50 μl of ice-cold acetonitrile. Afterwards, the mixtures were centrifuged at 18,407 × g for 5 min, 70 μl of the supernatants was transferred into autosampler vials, and 1 μl was injected onto the LC-HRMS/MS system. Positive control incubations were performed with pHLM (1 mg microsomal protein/ml), and negative controls without enzyme were prepared to identify non-metabolically formed compounds. All incubations were done in duplicate.

CYP2C8 = molecular target: T2, CYP2C8 (Homo sapiens, UniProt P10632); experiment: Monooxygenases activity screening, CYP2C8; assay type: in vitro ADME; conditions: 25 μM 4F-MDMB-BINACA, 50 pmol/ml enzyme, 30 min, 37°C, duplicate
T2 construct: purchased Corning; host or cells: baculovirus-transfected insect cell microsomes (Supersomes)
T2 sequence (P10632 1-490): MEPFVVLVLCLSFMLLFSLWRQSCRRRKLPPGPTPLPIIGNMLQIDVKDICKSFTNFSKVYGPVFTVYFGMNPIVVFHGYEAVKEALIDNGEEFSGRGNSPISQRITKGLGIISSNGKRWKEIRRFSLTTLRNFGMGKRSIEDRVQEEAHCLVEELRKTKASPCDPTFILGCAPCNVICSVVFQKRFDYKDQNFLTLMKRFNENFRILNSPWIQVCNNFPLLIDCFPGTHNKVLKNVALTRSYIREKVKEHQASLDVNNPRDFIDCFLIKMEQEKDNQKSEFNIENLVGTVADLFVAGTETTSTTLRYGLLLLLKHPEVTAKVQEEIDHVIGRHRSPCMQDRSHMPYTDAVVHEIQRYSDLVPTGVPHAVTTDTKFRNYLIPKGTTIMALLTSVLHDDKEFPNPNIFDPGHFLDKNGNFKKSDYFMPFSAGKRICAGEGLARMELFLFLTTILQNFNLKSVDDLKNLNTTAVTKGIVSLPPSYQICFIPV
Experimental: as §1

CYP2C9 = molecular target: T3, CYP2C9 (Homo sapiens, UniProt P11712); experiment: Monooxygenases activity screening, CYP2C9; assay type: in vitro ADME; conditions: 25 μM 4F-MDMB-BINACA, 50 pmol/ml enzyme, 30 min, 37°C, duplicate
T3 construct: purchased Corning; host or cells: baculovirus-transfected insect cell microsomes (Supersomes)
T3 sequence (P11712 whole entry): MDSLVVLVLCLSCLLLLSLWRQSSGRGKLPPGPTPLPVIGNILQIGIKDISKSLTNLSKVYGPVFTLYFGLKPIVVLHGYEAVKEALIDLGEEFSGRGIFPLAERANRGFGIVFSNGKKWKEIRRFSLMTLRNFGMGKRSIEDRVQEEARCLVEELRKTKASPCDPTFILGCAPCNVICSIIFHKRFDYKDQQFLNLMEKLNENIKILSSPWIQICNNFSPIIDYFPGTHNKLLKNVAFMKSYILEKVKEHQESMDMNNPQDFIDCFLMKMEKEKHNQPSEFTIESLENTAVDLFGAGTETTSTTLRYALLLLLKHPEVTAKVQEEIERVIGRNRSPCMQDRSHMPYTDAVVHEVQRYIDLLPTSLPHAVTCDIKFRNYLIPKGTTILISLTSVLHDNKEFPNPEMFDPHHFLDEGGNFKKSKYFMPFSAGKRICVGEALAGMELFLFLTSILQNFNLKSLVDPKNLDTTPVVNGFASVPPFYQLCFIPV
Experimental: as §1

CYP2C19 = molecular target: T4, CYP2C19 (Homo sapiens, UniProt P33261); experiment: Monooxygenases activity screening, CYP2C19; assay type: in vitro ADME; conditions: 25 μM 4F-MDMB-BINACA, 50 pmol/ml enzyme, 30 min, 37°C, duplicate
T4 construct: purchased Corning; host or cells: baculovirus-transfected insect cell microsomes (Supersomes)
T4 sequence (P33261 whole entry): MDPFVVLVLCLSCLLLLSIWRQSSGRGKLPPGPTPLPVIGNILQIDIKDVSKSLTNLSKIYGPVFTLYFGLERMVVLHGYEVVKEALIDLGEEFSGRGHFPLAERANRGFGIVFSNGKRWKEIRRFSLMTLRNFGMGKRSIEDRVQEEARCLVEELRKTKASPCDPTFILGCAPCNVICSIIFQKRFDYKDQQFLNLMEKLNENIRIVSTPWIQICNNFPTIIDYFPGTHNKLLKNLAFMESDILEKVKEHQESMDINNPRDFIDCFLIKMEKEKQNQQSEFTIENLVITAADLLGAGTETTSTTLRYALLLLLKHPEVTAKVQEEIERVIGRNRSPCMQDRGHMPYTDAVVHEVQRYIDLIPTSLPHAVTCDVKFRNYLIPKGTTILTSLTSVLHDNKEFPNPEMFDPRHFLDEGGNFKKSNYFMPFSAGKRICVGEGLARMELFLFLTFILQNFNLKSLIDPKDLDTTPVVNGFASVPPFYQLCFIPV
Experimental: as §1

CYP3A4 = molecular target: T5, CYP3A4 (Homo sapiens, UniProt P08684); experiment: Monooxygenases activity screening, CYP3A4; assay type: in vitro ADME; conditions: 25 μM 4F-MDMB-BINACA, 50 pmol/ml enzyme, 30 min, 37°C, duplicate
T5 construct: purchased Corning; host or cells: baculovirus-transfected insect cell microsomes (Supersomes)
T5 sequence (P08684 whole entry): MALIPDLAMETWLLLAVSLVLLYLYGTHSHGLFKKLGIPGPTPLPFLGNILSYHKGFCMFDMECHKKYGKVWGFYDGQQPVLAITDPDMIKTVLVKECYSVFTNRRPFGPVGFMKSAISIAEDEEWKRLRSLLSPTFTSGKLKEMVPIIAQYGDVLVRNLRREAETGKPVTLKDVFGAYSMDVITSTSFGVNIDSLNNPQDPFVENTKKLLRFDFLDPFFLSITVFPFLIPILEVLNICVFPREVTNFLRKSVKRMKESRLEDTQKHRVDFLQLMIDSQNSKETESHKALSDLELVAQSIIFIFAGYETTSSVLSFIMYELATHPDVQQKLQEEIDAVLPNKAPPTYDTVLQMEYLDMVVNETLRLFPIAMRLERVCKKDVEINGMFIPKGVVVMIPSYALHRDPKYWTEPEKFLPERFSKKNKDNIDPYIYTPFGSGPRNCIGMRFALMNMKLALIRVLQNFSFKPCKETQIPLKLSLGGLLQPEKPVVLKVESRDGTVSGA
Experimental: as §1

CYP3A5 = molecular target: T6, CYP3A5 (Homo sapiens, UniProt P20815); experiment: Monooxygenases activity screening, CYP3A5; assay type: in vitro ADME; conditions: 25 μM 4F-MDMB-BINACA, 50 pmol/ml enzyme, 30 min, 37°C, duplicate
T6 construct: purchased Corning; host or cells: baculovirus-transfected insect cell microsomes (Supersomes)
T6 sequence (P20815 whole entry): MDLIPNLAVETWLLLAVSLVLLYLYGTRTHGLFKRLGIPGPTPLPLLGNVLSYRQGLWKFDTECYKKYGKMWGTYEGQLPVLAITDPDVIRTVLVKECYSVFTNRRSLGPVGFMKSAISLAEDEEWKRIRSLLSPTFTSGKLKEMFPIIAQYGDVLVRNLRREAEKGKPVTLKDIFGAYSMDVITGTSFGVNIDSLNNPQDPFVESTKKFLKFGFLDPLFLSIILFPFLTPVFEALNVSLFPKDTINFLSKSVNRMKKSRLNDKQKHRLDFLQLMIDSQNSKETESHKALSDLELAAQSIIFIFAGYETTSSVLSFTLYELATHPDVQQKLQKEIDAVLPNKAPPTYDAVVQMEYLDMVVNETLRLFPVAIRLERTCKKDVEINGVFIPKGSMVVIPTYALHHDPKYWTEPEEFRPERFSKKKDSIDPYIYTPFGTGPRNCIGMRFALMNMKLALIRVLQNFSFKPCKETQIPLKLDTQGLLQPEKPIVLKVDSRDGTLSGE
Experimental: as §1

FMO3 = molecular target: T7, FMO3 (Homo sapiens, UniProt P31513); experiment: Monooxygenases activity screening, FMO3; assay type: in vitro ADME; conditions: 25 μM 4F-MDMB-BINACA, 0.25 mg protein/ml, 30 min, 37°C, duplicate
T7 construct: purchased Corning; host or cells: baculovirus-transfected insect cell microsomes (Supersomes)
T7 sequence (P31513 1-532): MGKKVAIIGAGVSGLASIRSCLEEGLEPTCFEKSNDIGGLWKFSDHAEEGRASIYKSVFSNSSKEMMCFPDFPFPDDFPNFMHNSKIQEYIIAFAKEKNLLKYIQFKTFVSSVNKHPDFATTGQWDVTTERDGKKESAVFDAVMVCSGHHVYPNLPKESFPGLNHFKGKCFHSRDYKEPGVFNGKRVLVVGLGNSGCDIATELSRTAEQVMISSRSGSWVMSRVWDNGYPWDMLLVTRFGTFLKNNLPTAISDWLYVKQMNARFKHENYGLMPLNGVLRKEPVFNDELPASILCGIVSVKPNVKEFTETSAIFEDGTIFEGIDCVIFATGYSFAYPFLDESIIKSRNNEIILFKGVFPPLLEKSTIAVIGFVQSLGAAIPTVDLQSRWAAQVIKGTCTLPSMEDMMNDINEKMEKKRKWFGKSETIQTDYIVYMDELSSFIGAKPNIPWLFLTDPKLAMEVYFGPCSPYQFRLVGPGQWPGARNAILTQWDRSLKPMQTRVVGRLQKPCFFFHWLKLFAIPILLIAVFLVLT
Experimental: as §1

[1] = Monooxygenases activity screening, pHLM positive control; assay type: in vitro ADME, human; conditions: 25 μM 4F-MDMB-BINACA, 1 mg microsomal protein/ml, 30 min, 37°C, duplicate
Experimental: as §1

SMILES	Detection of metabolite in incubation with CYP2B6 (CYP2B6)	Detection of metabolite in incubation with CYP2C8 (CYP2C8)	Detection of metabolite in incubation with CYP2C9 (CYP2C9)	Detection of metabolite in incubation with CYP2C19 (CYP2C19)	Detection of metabolite in incubation with CYP3A4 (CYP3A4)	Detection of metabolite in incubation with CYP3A5 (CYP3A5)	Detection of metabolite in incubation with FMO3 (FMO3)	Detection of metabolite in incubation with pHLM [1]
O=C(O)c1nn(CCCCF)c2ccccc12 [MB1]	–	–	–	–	–	–	–	+
COC(=O)[C@@H](NC(=O)c1n[nH]c2ccccc12)C(C)(C)C [MB4]	–	–	–	+	+	+	–	+
CC(C)(C)C(NC(=O)c1nn(CCCCF)c2ccccc12)C(=O)O (stereo not shown) [MB8]	–	–	–	–	–	–	–	+
COC(=O)[C@@H](NC(=O)c1nn(CCCCO)c2ccccc12)C(C)(C)C [MB11]	–	+	–	–	–	+	–	+
COC(=O)[C@@H](NC(=O)c1nn(CCCCF)c2ccccc12)C(C)(C)CO [MB16]	–	–	–	–	–	+	–	+
